Converted amounts (≈) assume the structure as drawn. Like-named read-outs stand apart in the source and are kept apart here.

As a reminder, the inhibition is the drop in the measured response relative to a control, in per cent.

Test [1] relates to HIV replication in monocytes (chronic HIV-1 infected promonocytic cells U1). As to the kind of experiment: HIV chronic study, chronically HIV-1 infected promonocytic U1 cells. It is filed as cell-based. The procedure: (§1) Chronic HIV-1 infected promonocytic cells U1 were derived from an acute HIV-1 infection of the promonocytic cell line, U937. The chronic HIV-1 infected T-cells, ACH-2, were derived from an acute HIV-1 infection of the T cell line, A3.01.
(§2) These cells were cultured in medium and the phorbol ester, PMA. PMA causes the cells (both U1 and ACH-2) to be activated and not divide but it also causes the U-1 cells to differentiate. […] Cell viability was measured when these cell lines were treated with the test compounds.
(§3) Both cell lines constituitively produce a small amount of HIV-1. ACH-2 cell lines tend to produce more HIV-1 than U1 cells as shown by p-24 ELISA. When either cell line is cultured in the presence of PMA there is an increase in the quantity of HIV-1 produced as measured by the p-24 antigen ELISA.
(§4) In addition, the number of […] positive HIV mRNA expressing cells per microscopic field is measured. Comparisons can be made from these numbers since the same number of cells were adhered to the glass slides for each drug concentration (10×10^6 cells/ml).

Test [2] concerns HIV. As to the kind of experiment: Acute HIV study, in vitro acute model. Format: cell-based. The following applies: in vitro acute model for HIV. The procedure: In an in vitro acute model for HIV chloropropham inhibited viral replication by 47% at 10 μg/ml and AZT inhibited viral replication by 98% at 1 μg/ml. The therapeutic index for chloropropham is 2.5 compared to 12,500 for AZT. The therapeutic index is ratio of toxic dose of the drug to the efficacious dose of the drug.

The test system of test [3] is Kerotinoyle Cells. The test is described as follows: EC-50 in normal healthy cells, keratinocytes. Format: cell-based. The following applies: Keratinocyte.
The test system of test [4] is colon tumor cells (HT29). The test is described as follows: MTT cell viability test, colon tumor cells. The note with it: Homo sapiens, HT-29, 120 h. Format: cell-based. The procedure:
(§5) The following cell culture tests were performed to test the toxicity of N-chlorophenylcarbamates and N-chlorophenylthiocarbamates compounds on colon, breast and lung human tumor cells. The viability of the cells were tested by looking at MTT (3-[4,5-dimethylthiazol-2-yl]-2,5-diphenyltetrazolium bromide) reduction. MTT assay is a well known measure of cell viability.
(§6) The colon tumor cells (HT29 from American Type Culture Collection (ATCC)) and the breast cells (MX1 from cell lines from ATCC) were cultured in Eagle's Minimal Essential Medium with 10% fetal bovine serum. The lung tumor cells (A549 from ATCC cell lines) were cultured in Ham's F12 medium with 10% fetal bovine serum.
(§7) The tumor cells were passaged and seeded into culture flasks at the desired cell densities. The culture medium was decanted and the cell sheets were washed twice with phosphate buffered saline (PBS). The cells were trypsinized and triturated prior to seeding the flasks. Unless otherwise indicated the cultures were incubated at 37±1° C. in a humidified atmosphere of 5±1% carbon dioxide in air. The cultures were incubated until they were 50-80% confluent.
(§8) The cells were subcultured when the flasks were subconfluent. The medium was aspired from the flasks and the cell sheets rinsed twice with PBS. Next, the Trypsin Solution was added to each flask to cover the cell sheet. The Trypsin Solution was removed after 30-60 seconds and the flasks were incubated at room temperature for two to six minutes. When 90% of the cells became dislodged, growth medium was added. The cells were removed by trituration and transferred to a sterile centrifuge tube. The concentration of cells in the suspension was determined, and an appropriate dilution was made to obtain a density of 5000 cells/ml. The cells were subcultured into the designated wells of the 96-well bioassay plates (200 microliter cell suspension per well). PBS was added to all the remaining wells to maintain humidity. The plates were then incubated overnight before test article treatment.
(§9) Each dose of test article was tested by treating quadruplicate wells of cultures with 100 microliter of each dilution. Those wells designated as solvent controls received an additional 100 microliters of methanol control; negative controls wells received an additional 100 microliters of treatment medium. PBS was added to the remaining wells not treated with test article or medium. The plates were then incubated for approximately 5 days. […]
(§10) The absorbance at 550 nm (OD550) of each well was measured with a Molecular Devices (Menlo Park, Calif.) VMax plate reader.
(§11) The mean OD550 of the solvent control wells and that of each test article dilution, and that of each of the blank wells and the positive control were calculated. […]
Background: Tetrazolium assays rely on reduction of a dye to a coloured formazan, in cell work by metabolically active cells.

For test [5], the system named is influenza. As to the kind of experiment: In vitro model for influenza. Format: cell-based.
For test [6], the system named is Fibroblasts. As to the kind of experiment: EC-50 in normal healthy cells, fibroblasts. It is filed as cell-based. The note with it: Fibroblast.
The subject of test [7] is breast, colon, non-small cell lung and ovarian tumors. As to the kind of experiment: In vitro human tumor colony forming units test, continuous exposure. It is filed as cell-based. The procedure:
Solid tumors removed from patients are minced into 2 to 5 mm fragments and immediately placed in McCoy's Medium 5A plus 10% heat inactivated newborn calf serum plus 1% penicillin/streptomycin. Within 4 hours, these solids tumors are mechanically disassociated with scissors, forced through No. 100 stainless steel mesh, through 25 gauge needles, and then washed with McCoy's medium as described above. Ascitic, pleural, pericardial fluids and bone marrow are obtained by standard techniques. The fluid or marrow is placed in sterile containers containing 10 units of preservative free heparin per ml. of malignant fluid or marrow. After centrifugation at 150×g for 10 minutes, the cells are harvested and washed with McCoy's medium plus 10% heat inactivated calf serum. The viability of cell suspensions is determined on a hemocytometer with trypan blue.
Cells to be cloned are suspended in 0.3% agar in enriched CMRL1066 supplemented with 15% heat inactivated horse serum, penicillin (100 units/ml), streptomycin (2 mg/ml), glutamine (2 mM), insulin (3 units/ml), asparagine (0.6 mg/ml), and HEPES buffer (2 mM). For the continuous exposure test each compound is added to the above mixture. […] If there is <30% colonies in the positive control when compared to the untreated control, the test is evaluated.

For test [8] the following is noted: doses from 50-400 mg/kg; 1958, 1959, 1972; cited from earlier work.
Test [9] deals with murine melanoma (B16). As to the kind of experiment: In vivo mouse model for murine melanoma.
Test [10] deals with herpes. The test is described as follows: In vitro herpes screening model. Format: cell-based.
In test [11] the test system is Broncheal Cells. The test is described as follows: EC-50 in normal healthy cells, bronchial cells. It is filed as cell-based.
Test [12] concerns influenza. The test is described as follows: In vivo model for influenza.
Test [13] deals with leukemia (P388). As to the kind of experiment: In vivo mouse model for leukemia.
The subject of test [14] is herpes. The test is described as follows: In vivo herpes screening test. More on the design: species or system mice. The procedure:
In an in vivo herpes screening test, at a dose of 150 mg/kg dose, 60% of the mice survived with a 10.2 mean death date. The positive control was acyclovir at 75 mg/kg dose; 60% of the mice survived with a mean death date of 17.2 days.

Test [15] relates to HIV replication in T-cells (chronic HIV-1 infected T-cells, ACH-2). As to the kind of experiment: HIV chronic study, chronically HIV-1 infected ACH-2 T-cells. Format: cell-based. The note with it: chronic HIV model, ACH-2 cells. The procedure:
as §1, §2, §3, §4

Test [16] deals with breast cancer (MXI). As to the kind of experiment: In vivo mouse model for breast cancer.
For test [17], the system named is breast cells (MX1). As to the kind of experiment: MTT cell viability test, breast cells. Format: cell-based. The note with it: Homo sapiens, 120 h. The procedure: as §5, §6, §7, §8, §9, §10, §11
The subject of test [18] is Rhinovirus. The test is described as follows: In vivo Rhinovirus screening test.
Test [19] has as its system lung tumor cells (A549). As to the kind of experiment: MTT cell viability test, lung tumor cells. Format: cell-based. The note with it: Homo sapiens, A549, 120 h. The procedure:
as §5, §6, §7, §8, §9, §10, §11

Where [20] appears, read: 75 mg/kg dose, positive control.

With `Cc1cn([C@H]2C[C@H](N=[N+]=[N-])[C@@H](CO)O2)c(=O)[nH]c1=O` [AZT, reference compound], the “action in the HIV chronic model” value in test [1] is recorded as “no action”. In test [2] (1 μg/ml), the “inhibition of viral replication” value stood at 98%.
In the case of `CC(C)OC(=O)Nc1cccc(Cl)c1` [Chloropropham, (3-chlorophenyl)carbamic acid 1-methylethyl ester], the EC50 was 3.9 µg/mL (≈ 18.3 µM) in test [3] (read-out: EC-50 Kerotinoyle Cells, normal healthy cells, first value); 13 µg/mL (≈ 60.8 µM) in test [3] (read-out: EC-50 Kerotinoyle Cells, normal healthy cells, second value); 13.3 µg/mL (≈ 62.2 µM) in test [4] (read-out: EC-50 Result HT29, MTT, 5 day incubation, first HT29 column); 11.4 µg/mL (≈ 53.4 µM) in test [4] (read-out: EC-50 Result HT29, MTT, 5 day incubation, second HT29 column); over 152 µg/mL in test [6] (read-out: EC-50 Fibroblasts, normal healthy cells, first value); 64.2 µg/mL (≈ 300 µM) in test [6] (read-out: EC-50 Fibroblasts, normal healthy cells, second value). The EC50 was over 15.2 µg/mL in test [11] (read-out: EC-50 Broncheal Cells, normal healthy cells, second value); 91.8 µg/mL (≈ 430 µM) in [17] (read-out: EC-50 Result MX1, MTT, 5 day incubation, first MX1 column); 108 µg/mL (≈ 505 µM) in test [17] (read-out: EC-50 Result MX1, MTT, 5 day incubation, second MX1 column); 12.6 µg/mL (≈ 59 µM) in [19] (read-out: EC-50 Result A549, MTT, 5 day incubation, first A549 column); 92.5 µg/mL (≈ 433 µM) in test [19] (read-out: EC-50 Result A549, MTT, 5 day incubation, second A549 column). The “activity in in vitro model for influenza” value in test [5] was “did not show activity”. Further, in [7] (100 μg/ml, continuous exposure, breast, colon, non-small cell lung and ovarian tumors), the “effective against tumors (fraction)” value was 6/7. Moreover, the effectiveness against tumors result in test [7] (1 and 10.0 μg/ml) was “not effective”. Moreover, the “activity in National Cancer Institute tests” value in test [8] was “no activity”. For the same compound, the “activity in in vivo mouse model for murine melanoma (B16)” value in test [9] is given as “no activity”. Also, in test [10], the “activity in in vitro herpes screening model” value is given as “Nor was it active”. The “activity in in vivo model for influenza” value in [12] was “did not show activity”. The “activity in in vivo mouse model for leukemia (P388)” value in test [13] is reported as “no activity”. Further, the “suppression of HIV replication in monocytes” value in test [1] (chronic HIV model, U1 cells) turned out to be 79%. The same compound registered a mean death date in test [14] (150 mg/kg dose) of 10.2. Moreover, the mice survived in test [14] (150 mg/kg dose) amounted to 60%. For the same compound, the inhibition at 10 µg/mL in test [2] (Human immunodeficiency virus 1, 10 μg/ml, read-out: inhibition of viral replication) turned out to be 47%. In addition, the “increase in HIV replication in T-cells” value in test [15] was determined as 101%. Also, in [16], the “activity in in vivo mouse model for breast cancer (MXI)” value is “no activity”. Moreover, the “activity in in vivo Rhinovirus screening test” value in [18] is “Nor was it active”.
In test [14] (setting [20]), `Nc1nc2c(ncn2COCCO)c(=O)[nH]1` [acyclovir, reference compound] had a mean death date of 17.2 days and a mice survived of 60%.
Consider `COc1cccc2c1C(=O)c1c(O)c3c(c(O)c1C2=O)C[C@@](O)(C(=O)CO)C[C@@H]3O[C@H]1C[C@H](N)[C@H](O)[C@H](C)O1` [Adriamycin, doxorubicin (adriamycin), reference compound], for which the EC50 is 0.0035 µg/mL (≈ 0.00644 µM) in [3] (normal healthy cells, first value, read-out: EC-50 Kerotinoyle Cells); 0.0093 µg/mL (≈ 0.0171 µM) in test [3] (normal healthy cells, second value, read-out: EC-50 Kerotinoyle Cells); 0.003 µg/mL (≈ 0.00552 µM) in [4] (MTT, 5 day incubation, first HT29 column, read-out: EC-50 Result HT29); 0.006 µg/mL (≈ 0.011 µM) in test [4] (MTT, 5 day incubation, second HT29 column, read-out: EC-50 Result HT29); 0.065 µg/mL (≈ 0.12 µM) in test [6] (normal healthy cells, first value, read-out: EC-50 Fibroblasts); 0.1 µg/mL (≈ 0.184 µM) in [6] (normal healthy cells, second value, read-out: EC-50 Fibroblasts). For the same compound, the EC50 in [11] (normal healthy cells, first value, read-out: EC-50 Broncheal Cells) worked out at 0.015 µg/mL (≈ 0.0276 µM); in [11] (normal healthy cells, second value, read-out: EC-50 Broncheal Cells), 0.002 µg/mL (≈ 0.00368 µM); in [17] (MTT, 5 day incubation, first MX1 column, read-out: EC-50 Result MX1), 0.02 µg/mL (≈ 0.0368 µM); in test [17] (MTT, 5 day incubation, second MX1 column, read-out: EC-50 Result MX1), 0.001 µg/mL (≈ 0.00184 µM); in test [19] (MTT, 5 day incubation, first A549 column, read-out: EC-50 Result A549) it was 0.03 µg/mL (≈ 0.0552 µM); in test [19] (MTT, 5 day incubation, second A549 column, read-out: EC-50 Result A549), 0.009 µg/mL (≈ 0.0166 µM).
